According to patent US7902175B2, “Aminopropanol derivatives” (Novartis AG, priority 2003, dated 2011):
Blank lines part the entries; values can stand above or below the compound they belong to.

What was measured:
[1] = Chiral HPLC determination of FTY720-phosphate enantiomers in blood after dosing 14C-labeled FTY720; assay type: in vivo; settings: rats, orally 7.5 mg/kg or intravenous infusion 4 mg/kg; blood e.g. 3 or 72 hours after dosing
Excerpt: In a further aspect, the present invention provides a method of determining the amount of the R and/or S isomers of a compound of formula II present in a sample, comprising (a) reacting the compound of formula II present in the sample with benzene-1,2-dicarbaldehyde to form a compound of formula I, and separating the R and S isomers of the compound of formula I by HPLC. The HPLC is preferably performed as described above, using a chiral ion-exchange phase e.g. based on quinine carbamate or quinidine carbamate. The compounds of formula I are useful as intermediates in such a method. The sample may be e.g. a sample derived from a bodily fluid e.g. blood, plasma, saliva, or urine, and may be first subjected to one or more separation steps, (e.g. extraction with methanol and/or non-chiral HPLC) in order to separate the compound of formula II from the fluid. By such a method the amount of the active R or S enantiomer in the sample may be determined. […]
For example, achiral 14C-labeled FTY720 is administered to rats either orally (7.5 mg/kg) or by intravenous infusion (4 mg/kg). […] The derivative is spiked with unlabelled OPA-derivatized R and S FTY720-phosphate as retention time markers (monitored by UV at 215 nm) and subjected to chiral HPLC separation using a ProntoSIL Chiral AX QN-1 column.

[2] = target: T1, S1P-4 (Homo sapiens, UniProt O95977); experiment: GTPγS binding assay using S1P receptor/HEK293 membrane preparations; assay type: biochemical; settings: for EC50: GTPγS binding, transiently transfected HEK293 membranes
T1 construct: expressed in transfected cells; host or cells: HEK293 (transient, calcium phosphate); crude membranes
T1 sequence (O95977 1-384): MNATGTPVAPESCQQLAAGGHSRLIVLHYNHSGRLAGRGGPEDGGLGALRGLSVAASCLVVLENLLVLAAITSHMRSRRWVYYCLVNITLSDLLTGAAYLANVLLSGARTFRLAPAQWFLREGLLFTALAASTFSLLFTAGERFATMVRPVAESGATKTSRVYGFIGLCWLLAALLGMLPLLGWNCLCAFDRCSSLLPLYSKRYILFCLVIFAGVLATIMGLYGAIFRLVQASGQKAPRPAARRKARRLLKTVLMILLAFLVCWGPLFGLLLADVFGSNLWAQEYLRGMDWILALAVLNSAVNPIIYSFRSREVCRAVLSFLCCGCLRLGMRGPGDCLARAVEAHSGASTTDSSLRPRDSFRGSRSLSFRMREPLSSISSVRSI
Excerpt: (§1) The compounds of the invention have binding affinity to individual human S1P receptors as determined in following assays:
(§2) Transient Transfection of Human S1P Receptors into HEK293 Cells
(§3) S1P receptors and Gi proteins are cloned, and equal amounts of 4 cDNAs for the S1P receptor, Gi-α, Gi-β and Gi-γ are mixed and used to transfect monolayers of HEK293 cells using the calcium phosphate precipitate method (M. Wigler et al., Cell. 1977; 11; 223 and DS. Im et al., Mol. Pharmacol. 2000; 57; 753). Briefly, a DNA mixture containing 25 μg of DNA and 0.25 M CaCl is added to HEPES-buffered 2 mM Na2HPO4. Subconfluent monolayers of HEK293 cells are poisoned with 25 […], and the DNA precipitate is then applied to the cells. After 4 h, the monolayers are washed with phosphate-buffered saline and refed media (90% 1:1 Dulbecco's modified essential media (DMEM):F-12+10% fetal bovine serum). The cells are harvested 48-72 h after addition of the DNA by scraping in HME buffer (in mM: 20 HEPES, 5 MgCl2, 1 EDTA, pH 7.4) containing 10% sucrose on ice, and disrupted using a Dounce homogenizer. After centrifugation at 800×g, the supernatant is diluted with HME without sucrose and centrifuged at 100,000×g for 1 h. The resulting pellet is rehomogenized and centrifuged a second hour at 100,000×g. This crude membrane pellet is resuspended in HME with sucrose, aliquoted, and snap-frozen by immersion in liquid nitrogen. The membranes are stored at […] Protein concentration is determined spectroscopically by Bradford protein assay.
(§4) GTPγS Binding Assay Using S1P Receptor/HEK293 Membrane Preparations
(§5) GTPγS binding experiments are performed as described by D S. Im et al., Mol. Pharmacol. 2000; 57:753. Ligand-mediated GTPγS binding to G-proteins is measured in GTP binding buffer (in mM: 50 HEPES, 100 NaCl, 10 MgCl2, pH 7.5) using 25 μg of a membrane preparation from transiently transfected HEK293 cells. Ligand is added to membranes in the presence of 10 μM GDP and 0.1 nM [^35S]GTPγS (1200 Ci/mmol) and incubated at 30° C. for 30 min. Bound GTPγS is separated from unbound using the Brandel harvester (Gaithersburg, Md.) and counted with a liquid scintillation counter.

[3] = tested on: human S1P receptors; experiment: GTPγS binding assay, S1P receptors in general; assay type: biochemical
Excerpt: as §1, §2
S1P receptors and Gi proteins are cloned, and equal amounts of 4 cDNAs for the S1P receptor, Gi-α, Gi-β and Gi-γ are mixed and used to transfect monolayers of HEK293 cells using the calcium phosphate precipitate method (M. Wigler et al., Cell. 1977; 11; 223 and DS. Im et al., Mol. Pharmacol. 2000; 57; 753). Briefly, a DNA mixture containing 25 μg of DNA and 0.25 M CaCl is added to HEPES-buffered 2 mM Na2HPO4. Subconfluent monolayers of HEK293 cells are poisoned with 25 […], and the DNA precipitate is then applied to the cells. […] Protein concentration is determined spectroscopically by Bradford protein assay. […]
as §5, with “Ligand is added to membranes in the presence of 10 μM GDP and 0.1 nM [^35S]GTPγS (1200 Ci/mmol) and incubated at 30° C. for 30 min.” left out

[4] = target: T2, S1P-1 (Homo sapiens, UniProt P21453); experiment: GTPγS binding assay using S1P receptor/HEK293 membrane preparations; assay type: biochemical
T2 construct: expressed in transfected cells; host or cells: HEK293 (transient, calcium phosphate); crude membranes
Procedure: as §2
as §3, with “Briefly,” for “S1P receptors and Gi proteins are cloned, and equal amounts of 4 cDNAs for the S1P receptor, Gi-α, Gi-β and Gi-γ are mixed and used to transfect monolayers of HEK293 cells using the calcium phosphate precipitate method (M. Wigler et al., Cell. 1977; 11; 223 and DS. Im et al., Mol. Pharmacol. 2000; 57; 753). Briefly,”
as §4
as §5, with “Ligand-mediated” for “GTPγS binding experiments are performed as described by D S. Im et al., Mol. Pharmacol. 2000; 57:753. Ligand-mediated”

[5] = target: T3, S1P-5 (Homo sapiens, UniProt Q9H228); experiment: as above; assay type: biochemical
T3 construct: expressed in transfected cells; host or cells: HEK293 (transient, calcium phosphate); crude membranes
Procedure: as §2
as §3, with “Briefly,” for “S1P receptors and Gi proteins are cloned, and equal amounts of 4 cDNAs for the S1P receptor, Gi-α, Gi-β and Gi-γ are mixed and used to transfect monolayers of HEK293 cells using the calcium phosphate precipitate method (M. Wigler et al., Cell. 1977; 11; 223 and DS. Im et al., Mol. Pharmacol. 2000; 57; 753). Briefly,”
as §4
as §5, with “Ligand-mediated” for “GTPγS binding experiments are performed as described by D S. Im et al., Mol. Pharmacol. 2000; 57:753. Ligand-mediated”

[6] = target: T4, S1P-3 (Homo sapiens, UniProt Q99500); experiment: as above; assay type: biochemical
T4 construct: expressed in transfected cells; host or cells: HEK293 (transient, calcium phosphate); crude membranes
Procedure: as §2, §3, §4, §5

[7] = target: T5, S1P-2 (Homo sapiens, UniProt O95136); experiment: as above; assay type: biochemical; settings: transiently transfected HEK293 membranes
T5 construct: expressed in transfected cells; host or cells: HEK293 (transient, calcium phosphate); crude membranes
Procedure: as §2, §3, §4, §5

[8] = GTPγS binding, transiently transfected HEK293 membranes

T3 sequence (Q9H228 whole entry): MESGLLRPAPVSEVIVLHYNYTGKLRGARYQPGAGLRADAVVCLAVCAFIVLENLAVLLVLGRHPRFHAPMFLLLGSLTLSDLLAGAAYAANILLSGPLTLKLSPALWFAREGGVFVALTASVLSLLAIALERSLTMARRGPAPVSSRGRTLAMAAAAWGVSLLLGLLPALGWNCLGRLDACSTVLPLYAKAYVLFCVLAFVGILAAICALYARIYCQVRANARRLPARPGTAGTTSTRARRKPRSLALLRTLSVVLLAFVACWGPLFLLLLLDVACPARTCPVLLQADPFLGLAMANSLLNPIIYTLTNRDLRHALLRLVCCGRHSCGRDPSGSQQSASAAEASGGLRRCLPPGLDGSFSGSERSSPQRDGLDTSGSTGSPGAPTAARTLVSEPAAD
T4 sequence (Q99500 whole entry): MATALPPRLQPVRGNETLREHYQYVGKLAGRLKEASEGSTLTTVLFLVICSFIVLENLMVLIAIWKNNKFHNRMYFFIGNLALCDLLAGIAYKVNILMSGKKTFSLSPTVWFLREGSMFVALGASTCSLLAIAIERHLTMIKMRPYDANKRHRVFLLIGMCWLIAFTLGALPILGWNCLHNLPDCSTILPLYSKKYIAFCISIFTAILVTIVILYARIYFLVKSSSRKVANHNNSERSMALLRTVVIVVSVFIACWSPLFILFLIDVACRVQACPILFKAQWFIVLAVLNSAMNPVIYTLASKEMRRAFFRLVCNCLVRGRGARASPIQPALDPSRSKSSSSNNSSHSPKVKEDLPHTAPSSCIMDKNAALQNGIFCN
T2 sequence (P21453 whole entry): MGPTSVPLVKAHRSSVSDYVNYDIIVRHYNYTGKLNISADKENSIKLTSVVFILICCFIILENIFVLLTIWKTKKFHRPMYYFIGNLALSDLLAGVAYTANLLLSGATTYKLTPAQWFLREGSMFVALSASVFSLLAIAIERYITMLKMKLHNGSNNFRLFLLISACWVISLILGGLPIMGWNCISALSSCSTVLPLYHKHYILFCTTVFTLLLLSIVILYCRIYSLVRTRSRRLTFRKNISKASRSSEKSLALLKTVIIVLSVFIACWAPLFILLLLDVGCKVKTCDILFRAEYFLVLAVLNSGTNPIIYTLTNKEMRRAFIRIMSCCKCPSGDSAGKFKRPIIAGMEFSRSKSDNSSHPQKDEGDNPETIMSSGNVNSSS
T5 sequence (O95136 whole entry): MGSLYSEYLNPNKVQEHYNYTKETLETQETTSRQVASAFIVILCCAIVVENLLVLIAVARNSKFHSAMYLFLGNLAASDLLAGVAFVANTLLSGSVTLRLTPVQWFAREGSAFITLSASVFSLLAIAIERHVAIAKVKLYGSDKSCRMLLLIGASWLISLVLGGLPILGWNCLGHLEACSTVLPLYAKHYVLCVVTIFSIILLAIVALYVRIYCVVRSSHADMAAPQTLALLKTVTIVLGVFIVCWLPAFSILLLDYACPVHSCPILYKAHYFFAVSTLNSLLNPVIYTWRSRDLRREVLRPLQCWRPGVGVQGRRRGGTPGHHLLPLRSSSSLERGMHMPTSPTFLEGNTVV

- R-enantiomer of [14C]FTY720-phosphate in blood [1]: not detectable
Structure (SMILES): CCCCCCCCc1ccc(CCC(N)(CO)CO)cc1 [FTY720, 2-amino-2-[2-(4-octylphenyl)ethyl]propane-1,3-diol]
- enantiomer of the metabolite [14C]FTY720-phosphate in all blood samples [1]: exclusively the pharmacologically active S-enantiomer

- EC50 [2]: 80.1 nM
- agonistic effects on S1P receptors [3]: only at very high concentrations
Structure (SMILES): CCCCCCCCc1ccc(CCC(N)(CO)COP(=O)(O)O)cc1 (single isomer, unassigned) [(R)-FTY720-P, phosphoric acid mono-[2-amino-2-hydroxymethyl-4-(4-octyl-phenyl)-butyl]ester]

- agonist character on S1P1 ([4]; in the low nanomolar range): full agonist
- agonist character on S1P5 ([5]; in the low nanomolar range): partial agonist
- agonist character on S1P3 ([6]; in the low nanomolar range): full agonist
- EC50 [2]: 0.75 nM
- agonist character on S1P4 ([2]; in the low nanomolar range): partial agonist
Structure (SMILES): CCCCCCCCc1ccc(CCC(N)(CO)COP(=O)(O)O)cc1 (single isomer, unassigned) [(S)-FTY720-P, phosphoric acid mono-[2-amino-2-hydroxymethyl-4-(4-octyl-phenyl)-butyl]ester]

- EC50 [4, 8]: 0.4 nM
- EC50 [5, 8]: 7.7 nM
- EC50 [7]: > 10000 nM
- EC50 [6, 8]: 140 nM
- EC50 [2]: 6.6 nM
Structure (SMILES): N[C@@](CO)(CCc1ccc(OCCc2ccc(C(F)(F)F)cc2)cc1)COP(=O)(O)O [Ex. 14, Phosphoric Acid mono-((R)-2-amino-2-hydroxymethyl-4-{4-[2-(4-trifluoromethyl-phenyl)-ethoxy]-phenyl}-butyl)ester]
